Read-outs that look alike come from different tables or passages of the source.
Tested on: human pluripotent stem cell-derived OPCs (hSC-OPCs)
Experiment: Human stem cell-derived OPC differentiation assay (O4 staining, ArrayScan)
Type: cell-based
Details: for EC50: Homo sapiens
Protocol: Human oligodendrocytes were generated by a proprietary methodology of […] (Weizmann Science Park, Nes-Ziona, Israel; […].com). In brief, 5,000 human embryonic stem cell-derived OPCs (hES-OPCs) were seeded in each well of Matrigel and PDL-coated 96-well black μClear plates (Greiner, Frickenhausen, Germany). […] Twenty-four hours after seeding, medium was removed, and 200 μl of DIF fresh medium containing the compound of interest at a specific dilution (in 0.1% DMSO) was supplemented to the cells (first feeding). Total volume for each well was 200 μl. Four replicates were used for each dose of compound under study. After 48 hr, the media were replenished by removing 100 μl of media, and the same amount of fresh DIF media was added to the wells. Only at the first feeding, DIF media with 0.1% DMSO were used as control of the compound in medium containing 0.1% DMSO. Two experimental sets were conducted for the differentiation assay. On Day 21, live staining of oligodendrocytes was done by incubating the cells with O4 antibody (R&D Systems, Minneapolis, MN) for 20 min followed by detection with goat anti-mouse IgM-FITC (Chemicon) for additional 20 min. Cells were washed twice using DIF media. Immediately after, cells were fixed using 4% paraformaldehyde, and then washed with 1 × PBS, and 4',6-diamidino-2-phenylindole (DAPI; Sigma) was used for nuclear staining. […] Cellomics Neural profiling bioapplication was used for processing and analyzing the images. The 4-parameter Hill-Slope curve fittings were generated by GraphPad Prism software using the least squares fitting method, and EC50 values were calculated for the three major parameters of oligodendrocyte differentiation: number of differentiated oligodendrocytes, number of oligodendrocyte processes, and oligodendrocytes processes length (μm). The negative control groups of each experimental set were used for data normalization. We additionally studied the effect of ROCK inhibition in cultures of OPCs of human origin. […]

Q: What does the source list for `C[C@@H](N)[C@H]1CC[C@H](C(=O)Nc2ccncc2)CC1.Cl.Cl` [Y0503, trans-4-[(1 R)-1-aminoethyl]-N-4-pyridinylcyclohexanecarboxamide dihydrochloride]?
A: EC50 (read-out: OLs processes count / well EC50): 88.5 nM; EC50 (read-out: OLs processes total length / well EC50): 138 nM; Differentiation into O4-positive premyelinating stage (hSC-OPCs treated 48 hr, 21 days culture): dose-response differentiation effect
